Assay results as given in US10556888B2, “Pyrazole compounds or salts thereof, preparation methods therefor, herbicidal compositions and use thereof” (QINGDAO KINGAGROOT CHEMICAL COMPOUNDS CO., LTD, priority 2015, dated 2020).

Key:
[1] = tested on: Monocotyledonous and dicotyledonous weed; test: Post-emergence test experiment, weed control effect (Table 2); assay type: in vivo; parameters: key to weed control effect, Setaria viridis (level) / weed control effect, Rorippa indica (level) / weed control effect, Abutilon theophrasti (level) / weed control effect, Echinochloa crus-galli (level) / weed control effect, Digitaria sanguinalis (level): Level 10: completely dead; Level 9: above 90% growth inhibition rate; Level 8: above 80% growth inhibition rate; Level 7: above 70% growth inhibition rate; Level 6: above 60% growth inhibition rate; Level 5: above 50% growth inhibition rate; Level 4: above 30% growth inhibition rate; Level 3: above 20% growth inhibition rate; Level 2: above 10% growth inhibition rate; Level 1: above 1-10% growth inhibition rate; Level 0: no effect; details: 3 weeks after spraying, greenhouse
Description: (§1) Post-emergence test experiment: Monocotyledonous and dicotyledonous weed seeds and main crop seeds (i.e. wheat, corn, rice, soybean, cotton, oilseed, millet and sorghum.) were put into a plastic pot loaded with soil. Then covered with 0.5-2 cm soil, the seeds were allowed to grow in good greenhouse environment. The test plants were treated at 2-3 leaf stage 2-3 weeks after sowing. The test compounds of the invention were dissolved with acetone respectively, then added with 80 tween and diluted by certain amount of water to certain concentration. The solution was sprayed to the plants with a sprayer. Then the plants were cultured for 3 weeks in the greenhouse.

[2] = tested on: main crop (wheat, corn, rice, soybean, cotton, oilseed, millet and sorghum); test: Post-emergence test experiment, main crops (Table 2); assay type: in vivo; parameters: key: Level 10: completely dead; Level 9: above 90% growth inhibition rate; Level 8: above 80% growth inhibition rate; Level 7: above 70% growth inhibition rate; Level 6: above 60% growth inhibition rate; Level 5: above 50% growth inhibition rate; Level 4: above 30% growth inhibition rate; Level 3: above 20% growth inhibition rate; Level 2: above 10% growth inhibition rate; Level 1: above 1-10% growth inhibition rate; Level 0: no effect; details: 3 weeks after spraying, greenhouse
Description: as §1

Row | SMILES | weed control effect, Abutilon theophrasti (level) ([1]; 30 g/ha) | weed control effect, Bidens pilosa (level) ([1]; 30 g/ha) | weed control effect, Digitaria sanguinalis (level) ([1]; 30 g/ha) | weed control effect, Echinochloa crus-galli (level) ([1]; 30 g/ha) | weed control effect, Rorippa indica (level) ([1]; 30 g/ha) | weed control effect, Setaria viridis (level) ([1]; 30 g/ha) | effect on crop, corn (level) ([2]; 30 g/ha) | effect on crop, rice (level) ([2]; 30 g/ha) | effect on crop, wheat (level) ([2]; 30 g/ha) | weed control effect, Abutilon theophrasti (level) ([1]; 120 g/ha) | weed control effect, Bidens pilosa (level) ([1]; 120 g/ha) | weed control effect, Digitaria sanguinalis (level) ([1]; 120 g/ha) | weed control effect, Echinochloa crus-galli (level) ([1]; 120 g/ha) | weed control effect, Rorippa indica (level) ([1]; 120 g/ha) | weed control effect, Setaria viridis (level) ([1]; 120 g/ha) | effect on crop, corn (level) ([2]; 120 g/ha) | effect on crop, rice (level) ([2]; 120 g/ha) | effect on crop, wheat (level) ([2]; 120 g/ha) | other results
1 | Cc1nn(C)cc1C(=O)Oc1c(C(=O)c2ccc(S(C)(=O)=O)c(COCC(F)(F)C(F)F)c2Cl)c(C)nn1C [Compound 35] | 7 (Level 7: above 70% growth inhibition rate) | 7 (Level 7: above 70% growth inhibition rate) | 7 (Level 7: above 70% growth inhibition rate) | 10 | 5 (Level 5: above 50% growth inhibition rate) | 6 (Level 6: above 60% growth inhibition rate) | 1 (Level 1: above 1-10% growth inhibition rate) | 5 (Level 5: above 50% growth inhibition rate) | 0 |  |  |  |  |  |  |  |  |  | 
2 | CCOc1c(C(=O)Oc2c(C(=O)c3ccc(S(C)(=O)=O)c(Cn4cc(C)cn4)c3Cl)cnn2C)cnn1C [Compound 23] |  |  |  |  |  |  |  |  |  | 6 (Level 6: above 60% growth inhibition rate) | 6 (Level 6: above 60% growth inhibition rate) | 1 (Level 1: above 1-10% growth inhibition rate) | 10 | 4 (Level 4: above 30% growth inhibition rate) | 3 (Level 3: above 20% growth inhibition rate) | 0 | 0 | 0 | 
3 | CCn1nc(C2CC2)c(C(=O)c2ccc(S(C)(=O)=O)c(Cn3cc(Cl)cn3)c2C)c1OC(=O)c1cn(C)nc1C [Compound 84] |  |  |  |  |  |  |  |  |  | 6 (Level 6: above 60% growth inhibition rate) | 6 (Level 6: above 60% growth inhibition rate) | 1 (Level 1: above 1-10% growth inhibition rate) | 10 | 4 (Level 4: above 30% growth inhibition rate) | 3 (Level 3: above 20% growth inhibition rate) | 0 | 0 | 0 | 
4 | CCn1nc(C)c(C(=O)c2ccc(S(C)(=O)=O)c(Cn3cccn3)c2Cl)c1OC(=O)c1cn(C)nc1C [Compound 89] | 7 (Level 7: above 70% growth inhibition rate) | 7 (Level 7: above 70% growth inhibition rate) | 7 (Level 7: above 70% growth inhibition rate) | 10 | 10 | 8 (Level 8: above 80% growth inhibition rate) | 1 (Level 1: above 1-10% growth inhibition rate) | 1 (Level 1: above 1-10% growth inhibition rate) | 0 |  |  |  |  |  |  |  |  |  | 
5 | C#CCOCc1c(S(C)(=O)=O)ccc(C(=O)c2cnn(C)c2OC(=O)c2cnn(C)c2)c1Cl [Compound 61] | 7 (Level 7: above 70% growth inhibition rate) | 7 (Level 7: above 70% growth inhibition rate) | 7 (Level 7: above 70% growth inhibition rate) | 10 | 10 | 5 (Level 5: above 50% growth inhibition rate) | 0 | 3 (Level 3: above 20% growth inhibition rate) | 0 |  |  |  |  |  |  |  |  |  | 
6 | Cc1nn(C)cc1C(=O)Oc1c(C(=O)c2ccc(S(C)(=O)=O)c(Cn3cccn3)c2Cl)cnn1C [Compound 08] |  |  |  |  |  |  |  |  |  |  |  |  |  |  |  |  |  |  | weed control effect, Abutilon theophrasti (level) ([1]; 60 g/ha): 10; weed control effect, Bidens pilosa (level) ([1]; 60 g/ha): 8 (Level 8: above 80% growth inhibition rate); weed control effect, Digitaria sanguinalis (level) ([1]; 60 g/ha): 7 (Level 7: above 70% growth inhibition rate); weed control effect, Echinochloa crus-galli (level) ([1]; 60 g/ha): 9 (Level 9: above 90% growth inhibition rate); weed control effect, Rorippa indica (level) ([1]; 60 g/ha): 10; weed control effect, Setaria viridis (level) ([1]; 60 g/ha): 7 (Level 7: above 70% growth inhibition rate); effect on crop, corn (level) ([2]; 60 g/ha): 1 (Level 1: above 1-10% growth inhibition rate); effect on crop, rice (level) ([2]; 60 g/ha): 1 (Level 1: above 1-10% growth inhibition rate); effect on crop, wheat (level) ([2]; 60 g/ha): 1 (Level 1: above 1-10% growth inhibition rate)
7 | COCCCOCc1c(S(C)(=O)=O)ccc(C(=O)c2cnn(C)c2OC(=O)c2cn(C)nc2C)c1Cl [Compound 53] | 7 (Level 7: above 70% growth inhibition rate) | 7 (Level 7: above 70% growth inhibition rate) | 8 (Level 8: above 80% growth inhibition rate) | 10 | 10 | 6 (Level 6: above 60% growth inhibition rate) | 1 (Level 1: above 1-10% growth inhibition rate) | 3 (Level 3: above 20% growth inhibition rate) | 0 |  |  |  |  |  |  |  |  |  | 
8 | Cc1cc(C)n(Cc2c(S(C)(=O)=O)ccc(C(=O)c3c(C4CC4)nn(C)c3OC(=O)c3cn(C)nc3C)c2Cl)n1 [Compound 11] |  |  |  |  |  |  |  |  |  | 4 (Level 4: above 30% growth inhibition rate) | 6 (Level 6: above 60% growth inhibition rate) | 0 | 10 | 0 | 6 (Level 6: above 60% growth inhibition rate) | 0 | 0 | 0 | 
9 | Cc1cnn(Cc2c(S(C)(=O)=O)ccc(C(=O)c3c(C)nn(C)c3OC(=O)c3cnn(C)c3)c2Cl)c1 [Compound 14] |  |  |  |  |  |  |  |  |  | 6 (Level 6: above 60% growth inhibition rate) | 6 (Level 6: above 60% growth inhibition rate) | 0 | 10 | 4 (Level 4: above 30% growth inhibition rate) | 1 (Level 1: above 1-10% growth inhibition rate) | 0 | 0 | 0 | 
10 | Cc1nn(C)c(OC(=O)c2cnn(C)c2)c1C(=O)c1ccc(S(C)(=O)=O)c(Cn2cccn2)c1Cl [Compound 16] |  |  |  |  |  |  |  |  |  |  |  |  |  |  |  |  |  |  | weed control effect, Abutilon theophrasti (level) ([1]; 60 g/ha): 10; weed control effect, Bidens pilosa (level) ([1]; 60 g/ha): 8 (Level 8: above 80% growth inhibition rate); weed control effect, Digitaria sanguinalis (level) ([1]; 60 g/ha): 10; weed control effect, Echinochloa crus-galli (level) ([1]; 60 g/ha): 10; weed control effect, Rorippa indica (level) ([1]; 60 g/ha): 10; weed control effect, Setaria viridis (level) ([1]; 60 g/ha): 8 (Level 8: above 80% growth inhibition rate); effect on crop, corn (level) ([2]; 60 g/ha): 0; effect on crop, rice (level) ([2]; 60 g/ha): 1 (Level 1: above 1-10% growth inhibition rate); effect on crop, wheat (level) ([2]; 60 g/ha): 1 (Level 1: above 1-10% growth inhibition rate)
11 | Cc1nn(C)c(OC(=O)c2cnn(C)c2)c1C(=O)c1ccc(S(C)(=O)=O)c(COCC(F)(F)F)c1Cl [Compound 63] | 7 (Level 7: above 70% growth inhibition rate) | 7 (Level 7: above 70% growth inhibition rate) | 10 | 10 | 10 | 10 | 1 (Level 1: above 1-10% growth inhibition rate) | 6 (Level 6: above 60% growth inhibition rate) | 0 |  |  |  |  |  |  |  |  |  | 
12 | CCc1nn(CC)c(OC(=O)c2cn(C)nc2C)c1C(=O)c1ccc(S(C)(=O)=O)c(Cn2nc(C)cc2C)c1Cl [Compound 95] |  |  |  |  |  |  |  |  |  | 6 (Level 6: above 60% growth inhibition rate) | 6 (Level 6: above 60% growth inhibition rate) | 1 (Level 1: above 1-10% growth inhibition rate) | 10 | 4 (Level 4: above 30% growth inhibition rate) | 3 (Level 3: above 20% growth inhibition rate) | 0 | 0 | 0 | 
13 | Cc1nn(C)cc1C(=O)Oc1c(C(=O)c2ccc(S(C)(=O)=O)c(COCC(F)(F)F)c2Cl)c(C2CC2)nn1C [Compound 49] | 7 (Level 7: above 70% growth inhibition rate) | 7 (Level 7: above 70% growth inhibition rate) | 7 (Level 7: above 70% growth inhibition rate) | 10 | 10 | 9 (Level 9: above 90% growth inhibition rate) | 0 | 3 (Level 3: above 20% growth inhibition rate) | 0 |  |  |  |  |  |  |  |  |  | 
